According to patent US20230272357A1, “METHODS OF GENOME EDITING INCLUDING CONTROLLED OPENING OF CHROMATIN” (Wisconsin Alumni Research Foundation, priority 2021, published 2023):

What was measured:
Assay type in all cases: cell-based, human
[1] = system: on-target and top off-target sites of HIST1H2BJ-GFP, AAVS1 S10, EMX1; test: Off-target analysis of edited iPSCs (CHANGE-seq/GUIDE-seq sites, rhAmpSeq)
Experimental: Genome-wide, off-target analysis: Genomic DNA from iPSCs was isolated using Gentra® Puregene® Kit (Qiagen) according to the manufacturer's instructions. CHANGE-seq was performed as described in the art. Briefly, purified genomic DNA was tagmented with a custom Tn5-transposome to an average length of 400 bp, followed by gap repair with Kapa HiFi HotStart Uracil+DNA Polymerase (KAPA Biosystems) and Taq DNA ligase (NEB). Gap-repaired tagmented DNA was treated with USER™ enzyme (NEB) and T4 polynucleotide kinase (NEB). Intramolecular circularization of the DNA was performed with T4 DNA ligase (NEB) and residual linear DNA was degraded by a cocktail of exonucleases containing Plasmid-Safe ATP-dependent DNase (Lucigen), Lambda exonuclease (NEB), and Exonuclease I (NEB). In vitro cleavage reactions were performed with 125 ng of exonuclease-treated circularized DNA, 90 nM of SpCas9 protein (NEB), NEB buffer 3.1 (NEB) and 270 nM of sgRNA, in a 50 μL volume. Cleaved products were A-tailed, ligated with a hairpin adaptor (NEB), treated with USER™ enzyme (NEB), and amplified by PCR with barcoded universal primers NEBNext® Multiplex Oligos for Illumina® (NEB), using Kapa HiFi Polymerase (KAPA Biosystems). Libraries were quantified by qPCR (KAPA Biosystems) and sequenced with 151 bp paired-end reads on an Illumina® NextSeq instrument. CHANGE-seq data analyses were performed using open-source CHANGE-seq analysis software.
To determine the indel frequency at CHANGE-seq-identified off-target sites, on and off-target sites for were amplified from iPSC genomic DNA obtained using rhAmpSeg™ system (IDT), and sequencing libraries were generated according to the manufacturer's instructions. Sequencing was then performed with 150-bp paired-end reads on an Illumina® Miniseq instrument. Analysis was performed using CRISPAltRations: IDT rhAmpSeq CRISPR analysis tool.
Highly sensitive genome-wide, off-target analysis for our TSA-based editing strategy was assayed by CHANGE-seq at HIST1H2BJ-GFP site, which yielded a frequency distribution of the potential off-target sites (FIG. 3A,B). Top 12 off-target sites were amplified from genomic DNA using the rhAmp-Seq system (IDT) and subsequently sequenced using the Illumina® MiniSeq™ system. Sequencing data was then analyzed using the CRISPAltRations tool, which allowed for quantitative analysis of observed indel mutations (data not shown). […] Furthermore, the highest normalized on-target edit ratio was obtained for TSA concentration of 6.25 ng/mL, representative of the optimal TSA concentration for generating gene editing iPSCs.

[2] = system: iPSCs; test: Bulk RNA sequencing of TSA-treated iPSCs; conditions: edited clones from 6.25 ng/mL TSA, data not shown
Experimental: RNA extraction and Bulk RNA sequencing: RNA was extracted from iPSCs in one well of 6-well plate using the GenElute™ Total RNA Purification Kit (Millipore Sigma) according to the manufacturer's instructions. RNA was then quantified using Nanodrop™ 2000 (ThermoFisher Scientific) and the integrity of samples were confirmed with the following three criteria for inclusion: 1) a concentration>50 ng/ml, 2) an A260/A280 rating of 1.8 and 2.1, and 3) an A260/A230 ratio>1.8. Total RNA was submitted to the University of Wisconsin-Madison Biotechnology Center and was verified for purity and integrity via the NanoDrop™ One Spectrophotometer and Agilent 2100 BioAnalyzer, respectively. Samples that met the Illumina® sample input guidelines were prepared according to the TruSeq®Stranded Total Sample Preparation Guide (1000000040499 v00) using the Illumina® TruSeq ® Stranded Total Sample Preparation kits (Illumina Inc., San Diego, Calif., USA) and sequenced on an Illumina® NovaSeg™ 6000 system at a run length 2×150 bp and target read depth of 30 million reads/sample at the University of Wisconsin—Madison Biotechnology Center. […] Normalized counts were then extracted and genes with read counts <10 were filtered out. Fold change was then calculated as the ratio of the reads of the TSA-treated iPSCs to the untreated iPSCs.

[3] = system: HIST1H2BJ-GFP reporter iPSC nuclei; test: Live in situ nuclear imaging of chromatin condensation (CellProfiler); conditions: TSA 0, 3.13, 6.25, 12.5 ng/mL, FIG. 1C,D
Experimental: Antibodies and Staining: All cells were fixed for 15 minutes with 4% paraformaldehyde in PBS (Sigma-Aldrich, St. Louis, Mo.) and permeabilized with 0.5% Triton™-X (Sigma-Aldrich) for >4 hours at room temperature before staining. Hoechst (H1399; Thermo Fisher Scientific, Waltham, Mass.) was used at 5 μg/mL with 15 min incubation at room temperature to stain nuclei. Primary antibodies were applied overnight at 4° C. in a blocking buffer of 5% donkey serum (Sigma-Aldrich) at the following concentrations: H3K9Me3 (ab8898; Abcam) 1:500; H3K9Ac (39918; Active Motif) 1:100; H3K27Me3 (C36B11; Cell Signaling Technology) 1:200. […]
After streamlining the gene editing strategy, the effect of TSA treatment on the gene editing efficiency of iPSCs was examined The iPSCs were pre-treated with TSA (0, 3.13, 6.25, and 12.5 ng/mL) and their nuclei imaged. […] The images were then used as inputs for a CellProfiler software pipeline to output the chromatin condensation % of the nuclei (data not shown), defined as the ratio of total heterochromatin intensity to the total nuclear intensity. […]

[4] = HIST1H2BJ-GFP, AAVS1 S10, EMX1, with TSA concentration, FIG. 3C-E

CC(/C=C/C(=O)NO)=C\[C@@H](C)C(=O)c1ccc(N(C)C)cc1 [TSA, Trichostatin A]
TSA concentration giving highest normalized on-target edit ratio ([1]; AAVS1 S10 and EMX1 loci): 6.25 ng/mL
TSA concentration giving highest normalized on-target edit ratio ([1]; HIST1H2BJ-GFP site): 6.25 ng/mL
TSA concentration giving highest normalized on-target edit ratio ([1]; HIST1H2BJ-GFP, AAVS1 S10, EMX1, FIG. 3C-E): 6.25 ng/mL
Off-target indel % [1, 4]: remains the same
On-target indel % [1, 4]: increases
Indel % at off-target sites ([1]; top 12 off-target sites of HIST1H2BJ-GFP, upon TSA treatment): did not increase
Indel % at off-target sites ([1]; top off-target sites for AAVS1 S10 and EMX1 loci): no significant increase
Gene expression of pluripotency marker genes (OCT4, NANOG, SOX2, TRA-1-60) [2]: did not decrease
Chromatin condensation % (heterochromatin intensity to total nuclear intensity) [3]: decrease
